Measurements from publication PMC7178883, “1,2,4-Triazole-based anticonvulsant agents with additional ROS scavenging activity are effective in a model of pharmacoresistant epilepsy” (Journal of Enzyme Inhibition and Medicinal Chemistry, 2020).
≈ marks a conversion by molar mass, not a printed value. Where two headings read alike, the source gives them in different places. One block for each compound: values may come before it.

How the values were obtained:
DPPH assay = conditions: methanol, 30 min, 517 nm
Method: Free radical scavenging activity of compounds TP-10, TP-315 and TP-427 was evaluated using DPPH assay. Briefly, 25 µl of 0.2 mM of methanolic solution of DPPH ([…]) was mixed with 175 µl of varying concentrations (0.002–4.5 mg/ml) of the studied compounds dissolved in methanol. Reaction mixtures in the 96-well plate were incubated in the dark at room temperature for 30 min. The absorbance was measured at 517 nm against blank (which consists of all reagents without the investigated compounds) using a microplate reader (Epoch, BioTek Instruments, Inc., Winooski, VT, USA). As a reference, the antioxidant activity of vitamin C was evaluated. Each concentration of the compounds was assayed at least six times. The results were expressed as the IC50 (µg/ml) ± SD calculated using the linear regression analysis.

CUPRAC assay = conditions: pH 7.0, 450 nm
Method: Cupric reducing antioxidant capacity (CUPRAC) assay was performed according to the method by Apak et al.[20] with slight modifications. The CUPRAC reagent was prepared by mixing equal volume of CuCl2 (10 mM), neocuproine solution (7.5 mM), and acetate buffer (pH = 7.0). Subsequently, 50 µl of TP-10, TP-315, TP-427 (0.002–0.4 mg/ml) and 150 µl of CUPRAC reagent were pipetted into each well of 96-well plate (Nunc, Roskilde, Denmark). After pipetting, the plate was shaken for 5 min and then incubated for 25 min in the dark at room temperature. The absorbance of the solutions was read at 450 nm using a microplate reader (Epoch, BioTek Instruments, Inc., Winooski, VT, USA). At least six tests were performed for each concentration of the investigated compounds. The results were expressed as the IC50 (µg/ml) ± SD.

[1] = design: method as in Barton et al. 25; conditions: ref Barton et al. 25, cited from earlier work
[2] = system: 6 Hz-induced psychomotor seizures; design: method as in Barton et al. 25; conditions: pretreatment time 15 min, ref Barton et al. 25, cited from earlier work

IC50 ± SD, DPPH (DPPH assay): 7.82 ± 0.54 µg/mL (≈ 44.4 µM)
IC50 ± SD, CUPRAC (CUPRAC assay): 16.05 ± 0.48 µg/mL (≈ 91.1 µM)
Structure (SMILES): O=C1O[C@H]([C@@H](O)CO)C(O)=C1O [Ascorbic acid, reference compound]

Structure (SMILES): CC[C@@H](C(N)=O)N1CCCC1=O [Levetiracetam]
TD50 ([1]; pretreatment time 60 min): >500 mg/kg

Structure (SMILES): CCCC(CCC)C(=O)O [Valproate, valproic acid]
TD50 ([1]; pretreatment time 15 min): 363.3 mg/kg
ED50 ([2]; mouse 6 Hz test): 130.6 mg/kg
Protective index (TD50/ED50) [2]: 2.8
